Source: patent publication US10654832B2, “3-(benzoimidazol-2-YL)-indazole inhibitors of the Wnt signaling pathway and therapeutic uses thereof” (Samumed, LLC, priority 2013, dated 2020)

tested on: Wnt activity (wnt-responsive SP5 promoter luciferase reporter in SW480 cells); assay: Wnt activity reporter assay (SP5 promoter-firefly luciferase in SW480 cells); format: cell-based; conditions: Homo sapiens; SW480 colon cancer cells with SP5 promoter luciferase reporter; 24 h after compound addition; half-log dilutions, three micromolar top concentration; normalized to DMSO; read-out: Wnt inhibition
Source text: The above synthesized compounds were screened using the assay procedure for Wnt activity described below.
Reporter cell lines were generated by stably transducing cells of cancer cell lines (e.g., colon cancer) with a lentiviral construct that include a wnt-responsive promoter driving expression of the firefly luciferase gene.
Lentiviral constructs were made in which the SP5 promoter, a promoter having eight TCF/LEF binding sites derived from the SP5 promoter, was linked upstream of the firefly luciferase gene. The lentiviral constructs included a hygromycin resistance gene as a selectable marker. The SP5 promoter construct was used to transduce SW480 cells, a colon cancer cell line having a mutated APC gene that generates a truncated APC protein, leading to de-regulated accumulation of β-catenin.
Cultured SW480 cells bearing a reporter construct were distributed at approximately 10,000 cells per well into 384 well multiwell plates. Compounds were then added to the wells in half-log dilutions using a three micromolar top concentration. A series of control wells for each cell type received only buffer and compound solvent. Twenty-four hours after the addition of compound, reporter activity for luciferases was assayed, for example, by addition of the BrightGlo luminescence reagent (Promega) and the Victor3 plate reader (Perkin Elmer). Readings were normalized to DMSO only treated cells, and normalized activities were then used for the IC50 calculations.

Q: For `Fc1ccc(-c2cccc3[nH]c(-c4n[nH]c5ccc(-c6cncc(CNCc7ccccc7)c6)cc45)nc23)cc1` [Compound 47, N-benzyl-1-(5-(3-(4-(4-Fluorophenyl)-1H-benzo[d]imidazol-2-yl)-1H-indazol-5-yl)pyridin-3-yl)methanamine], which IC50 is on record?
A: The IC50 was 450 nM.

Q: With `CCNCc1cncc(-c2ccc3[nH]nc(-c4nc5c(-c6ccccc6F)cccc5[nH]4)c3c2)c1` [Compound 54, N-((5-(3-(4-(2-Fluorophenyl)-1H-benzo[d]imidazol-2-yl)-1H-indazol-5-yl)pyridin-3-yl)methyl)ethanamine] as the compound, how does the IC50 read?
A: The IC50 was 46 nM.

Q: Which IC50 does the source give for `O=C(Nc1cncc(-c2ccc3[nH]nc(-c4nc5c(-c6ccccc6F)cccc5[nH]4)c3c2)c1)c1ccccc1` [Compound 59, N-(5-(3-(4-(2-Fluorophenyl)-1H-benzo[d]imidazol-2-yl)-1H-indazol-5-yl)pyridin-3-yl)benzamide] here?
A: The IC50 was 332 nM.

Q: `Fc1ccccc1-c1cccc2[nH]c(-c3n[nH]c4ccc(-c5cncc(CN6CCCCC6)c5)cc34)nc12` [Compound 63, 3-(4-(2-Fluorophenyl)-1H-benzo[d]imidazol-2-yl)-5-(5-(piperidin-1-ylmethyl)pyridin-3-yl)-1H-indazole] was tested. Which IC50 did it give?
A: Its IC50 is 10 nM.

Q: `CCCCC(=O)Nc1cncc(-c2ccc3[nH]nc(-c4nc5c(-c6ccccc6F)cccc5[nH]4)c3c2)c1` [Compound 66, N-(5-(3-(4-(2-Fluorophenyl)-1H-benzo[d]imidazol-2-yl)-1H-indazol-5-yl)pyridin-3-yl)pentanamide] was tested. Which IC50 did it give?
A: The IC50 was ≥ 4000 nM.

Q: Which IC50 does the source give for `O=C(Nc1cncc(-c2ccc3[nH]nc(-c4nc5c(-c6ccccc6F)cccc5[nH]4)c3c2)c1)C1CCCC1` [Compound 69, N-(5-(3-(4-(2-Fluorophenyl)-1H-benzo[d]imidazol-2-yl)-1H-indazol-5-yl)pyridin-3-yl)cyclopentanecarboxamide] here?
A: The IC50 was 23 nM.

Q: Which IC50 does the source give for `Fc1ccccc1-c1cccc2[nH]c(-c3n[nH]c4ccc(-c5cncc(CNCC6CCCC6)c5)cc34)nc12` [Compound 72, 1-Cyclopentyl-N-((5-(3-(4-(2-fluorophenyl)-1H-benzo[d]imidazol-2-yl)-1H-indazol-5-yl)pyridin-3-yl)methyl)methanamine] here?
A: The IC50 was 1140 nM.

Q: For `Nc1cncc(-c2ccc3[nH]nc(-c4nc5c(-c6cccnc6)cccc5[nH]4)c3c2)c1` [Compound 75, 5-(3-(4-(Pyridin-3-yl)-1H-benzo[d]imidazol-2-yl)-1H-indazol-5-yl)pyridin-3-amine], which IC50 is on record?
A: Its IC50 is 6 nM.

Q: How did the IC50 turn out when `Cc1ccncc1-c1ccc2[nH]nc(-c3nc4c(-c5cccnc5)cccc4[nH]3)c2c1` [Compound 77, 5-(4-Methylpyridin-3-yl)-3-(4-(pyridin-3-yl)-1H-benzo[d]imidazol-2-yl)-1H-indazole] was run?
A: Its IC50 is 63 nM.

Q: `CN(C)c1cncc(-c2ccc3[nH]nc(-c4nc5c(-c6cccnc6)cccc5[nH]4)c3c2)c1` [Compound 79, N,N-Dimethyl-5-(3-(4-(pyridin-3-yl)-1H-benzo[d]imidazol-2-yl)-1H-indazol-5-yl)pyridin-3-amine] was tested. Which IC50 did it give?
A: Its IC50 is 45 nM.

Q: With `CC(C)Nc1cncc(-c2ccc3[nH]nc(-c4nc5c(-c6cccnc6)cccc5[nH]4)c3c2)c1` [Compound 84, N-Isopropyl-5-(3-(4-(pyridin-3-yl)-1H-benzo[d]imidazol-2-yl)-1H-indazol-5-yl)pyridin-3-amine] as the compound, how does the IC50 read?
A: The IC50 was 13 nM.

Q: For `CC(C)(C)CC(=O)Nc1cncc(-c2ccc3[nH]nc(-c4nc5c(-c6cccnc6)cccc5[nH]4)c3c2)c1` [Compound 88, 3,3-Dimethyl-N-(5-(3-(4-(pyridin-3-yl)-1H-benzo[d]imidazol-2-yl)-1H-indazol-5-yl)pyridin-3-yl)butanamide], which IC50 is on record?
A: Its IC50 is 135 nM.

Q: Which IC50 does the source give for `CCCC(=O)Nc1cncc(-c2ccc3[nH]nc(-c4nc5c(-c6cccnc6)cccc5[nH]4)c3c2)c1` [Compound 89, N-(5-(3-(4-(Pyridin-3-yl)-1H-benzo[d]imidazol-2-yl)-1H-indazol-5-yl)pyridin-3-yl)butyramide] here?
A: The IC50 was 4 nM.

Q: How did the IC50 turn out when `CCCCC(=O)Nc1cncc(-c2ccc3[nH]nc(-c4nc5c(-c6cccnc6)cccc5[nH]4)c3c2)c1` [Compound 90, N-(5-(3-(4-(Pyridin-3-yl)-1H-benzo[d]imidazol-2-yl)-1H-indazol-5-yl)pyridin-3-yl)pentanamide] was run?
A: The IC50 was 11 nM.

Q: With `O=C(Nc1cncc(-c2ccc3[nH]nc(-c4nc5c(-c6cccnc6)cccc5[nH]4)c3c2)c1)C1CCC1` [Compound 92, N-(5-(3-(4-(Pyridin-3-yl)-1H-benzo[d]imidazol-2-yl)-1H-indazol-5-yl)pyridin-3-yl)cyclobutanecarboxamide] as the compound, how does the IC50 read?
A: Its IC50 is 8 nM.

Q: For `O=C(Nc1cncc(-c2ccc3[nH]nc(-c4nc5c(-c6cccnc6)cccc5[nH]4)c3c2)c1)C1CCCCC1` [Compound 94, N-(5-(3-(4-(Pyridin-3-yl)-1H-benzo[d]imidazol-2-yl)-1H-indazol-5-yl)pyridin-3-yl)cyclohexanecarboxamide], which IC50 is on record?
A: The IC50 was 121 nM.

Q: How did the IC50 turn out when `c1ccc(CNCc2cncc(-c3ccc4[nH]nc(-c5nc6c(-c7cccnc7)cccc6[nH]5)c4c3)c2)cc1` [Compound 95, N-Benzyl-1-(5-(3-(4-(pyridin-3-yl)-1H-benzo[d]imidazol-2-yl)-1H-indazol-5-yl)pyridin-3-yl)methanamine] was run?
A: The IC50 was 163 nM.

Q: `CC(C)(C)C(=O)Nc1cncc(-c2ccc3[nH]nc(-c4nc5c(-c6ccncc6)cccc5[nH]4)c3c2)c1` [Compound 104, N-(5-(3-(4-(Pyridin-4-yl)-1H-benzo[d]imidazol-2-yl)-1H-indazol-5-yl)pyridin-3-yl)pivalamide] was tested. Which IC50 did it give?
A: The IC50 was 65 nM.

Q: `O=C(Cc1ccccc1)Nc1cncc(-c2ccc3[nH]nc(-c4nc5c(-c6ccncc6)cccc5[nH]4)c3c2)c1` [Compound 106, 2-Phenyl-N-(5-(3-(4-(pyridin-4-yl)-1H-benzo[d]imidazol-2-yl)-1H-indazol-5-yl)pyridin-3-yl)acetamide] was tested. Which IC50 did it give?
A: The IC50 was 1930 nM.

Q: How did the IC50 turn out when `CC(C)Nc1cncc(-c2ccc3[nH]nc(-c4nc5c(-c6ccncc6)cccc5[nH]4)c3c2)c1` [Compound 108, N-Isopropyl-5-(3-(4-(pyridin-4-yl)-1H-benzo[d]imidazol-2-yl)-1H-indazol-5-yl)pyridin-3-amine] was run?
A: The IC50 was 16 nM.

Q: For `c1cc(-c2ccncc2)c2nc(-c3n[nH]c4ccc(-c5cncc(CN6CCCC6)c5)cc34)[nH]c2c1` [Compound 110, 3-(4-(Pyridin-4-yl)-1H-benzo[d]imidazol-2-yl)-5-(5-(pyrrolidin-1-ylmethyl)pyridin-3-yl)-1H-indazole], which IC50 is on record?
A: The IC50 was 205 nM.

Q: Which IC50 does the source give for `CCCCC(=O)Nc1cncc(-c2ccc3[nH]nc(-c4nc5c(-c6ccncc6)cccc5[nH]4)c3c2)c1` [Compound 114, N-(5-(3-(4-(Pyridin-4-yl)-1H-benzo[d]imidazol-2-yl)-1H-indazol-5-yl)pyridin-3-yl)pentanamide] here?
A: The IC50 was 67 nM.

Q: `O=C(Nc1cncc(-c2ccc3[nH]nc(-c4nc5c(-c6ccncc6)cccc5[nH]4)c3c2)c1)C1CCC1` [Compound 116, N-(5-(3-(4-(Pyridin-4-yl)-1H-benzo[d]imidazol-2-yl)-1H-indazol-5-yl)pyridin-3-yl)cyclobutanecarboxamide] was tested. Which IC50 did it give?
A: The IC50 was 23 nM.

Q: Which IC50 does the source give for `O=C(Nc1cncc(-c2ccc3[nH]nc(-c4nc5c(-c6ccncc6)cccc5[nH]4)c3c2)c1)C1CCCC1` [Compound 117, N-(5-(3-(4-(Pyridin-4-yl)-1H-benzo[d]imidazol-2-yl)-1H-indazol-5-yl)pyridin-3-yl)cyclopentanecarboxamide] here?
A: Its IC50 is 54 nM.

Q: For `O=C(Nc1cncc(-c2ccc3[nH]nc(-c4nc5c(-c6ccncc6)cccc5[nH]4)c3c2)c1)C1CCCCC1` [Compound 118, N-(5-(3-(4-(Pyridin-4-yl)-1H-benzo[d]imidazol-2-yl)-1H-indazol-5-yl)pyridin-3-yl)cyclohexanecarboxamide], which IC50 is on record?
A: Its IC50 is 1460 nM.

Q: For `CC(C)CC(=O)Nc1cncc(-c2ccc3[nH]nc(-c4nc5c(-c6ccccn6)cccc5[nH]4)c3c2)c1` [Compound 122, 3-Methyl-N-(5-(3-(4-(pyridin-2-yl)-1H-benzo[d]imidazol-2-yl)-1H-indazol-5-yl)pyridin-3-yl)butanamide], which IC50 is on record?
A: Its IC50 is 11 nM.

Q: `Cc1ccncc1-c1ccc2[nH]nc(-c3nc4c(-c5ccccn5)cccc4[nH]3)c2c1` [Compound 125, 5-(4-Methylpyridin-3-yl)-3-(4-(pyridin-2-yl)-1H-benzo[d]imidazol-2-yl)-1H-indazole] was tested. Which IC50 did it give?
A: The IC50 was 54 nM.

Q: `CN(C)c1cncc(-c2ccc3[nH]nc(-c4nc5c(-c6ccccn6)cccc5[nH]4)c3c2)c1` [Compound 127, N,N-Dimethyl-5-(3-(4-(pyridin-2-yl)-1H-benzo[d]imidazol-2-yl)-1H-indazol-5-yl)pyridin-3-amine] was tested. Which IC50 did it give?
A: Its IC50 is 32 nM.

Q: Which IC50 does the source give for `CC(C)C(=O)Nc1cncc(-c2ccc3[nH]nc(-c4nc5c(-c6ccccn6)cccc5[nH]4)c3c2)c1` [Compound 129, N-(5-(3-(4-(Pyridin-2-yl)-1H-benzo[d]imidazol-2-yl)-1H-indazol-5-yl)pyridin-3-yl)isobutyramide] here?
A: The IC50 was 21 nM.

Q: For `CN(C)Cc1cncc(-c2ccc3[nH]nc(-c4nc5c(-c6ccccn6)cccc5[nH]4)c3c2)c1` [Compound 133, N,N-Dimethyl-1-(5-(3-(4-(pyridin-2-yl)-1H-benzo[d]imidazol-2-yl)-1H-indazol-5-yl)pyridin-3-yl)methanamine], which IC50 is on record?
A: The IC50 was 127 nM.

Q: For `c1ccc(-c2cccc3[nH]c(-c4n[nH]c5ccc(-c6cncc(CN7CCCC7)c6)cc45)nc23)nc1` [Compound 134, 3-(4-(Pyridin-2-yl)-1H-benzo[d]imidazol-2-yl)-5-(5-(pyrrolidin-1-ylmethyl)pyridin-3-yl)-1H-indazole], which IC50 is on record?
A: Its IC50 is 219 nM.
